Legend:
[1] = biological target: T1, GPIIb-IIIa (Homo sapiens, UniProt P05106+P08514); assay: Competition assay: synthetic polypeptide inhibition of biotinylated Fn binding to purified GPIIb-IIIa; conditions: for inhibition of Fn binding to GPIIb-IIIa: tested at 200 μM polypeptide
T1 construct: platelet membrane GPIIb-IIIa protein from lysed platelets; from tissue
Procedure: The competition assays are performed as described by Charo et al., J. Biol. Chem., 266:1415-1421 (1991). The competition assay is performed by first admixing into individual wells of a 96 well microtiter plate (Immunlon, Dynatech) 10 μg/ml of purified GPIIb-IIIa, prepared in Example 1, diluted in HEPES-saline buffer, pH 7.4, consisting of 10 mM HEPES, 150 mM NaCl 1 mM CaCl2 and 1 mMMgCl2. The plates are maintained for 16 hours at 4° C. to allow the purified receptor to adsorb onto the walls of the wells. The receptor-coated wells are then washed two times with Modified Tyrode's buffer, prepared as described in Example 1, to remove any non-bound receptor from the receptor-coated wells. Non-receptor-occupied sites on the microtiter wells are blocked by admixing 5% BSA dissolved in Modified Tyrode's buffer into each well and maintaining the plate for 2 hours at room temperature.
After removing the blocking solution and washing the blocked wells as described above, 50 μl of a 10 nM solution of biotinylated Fn in Modified Tyrode's buffer is admixed into each well in the presence of polypeptides prepared in Example 9a ranging in concentration from 0.1 μM to 200 μM polypeptide to form a solid-liquid phase receptor-protein admixture. Fn admixed in the absence of polypeptides served as a positive control for the competition assay. Purified Fn is prepared as described in Example 2.
The resultant purified Fn is then biotinylated as described by Dale et al., Blood, 77:1096-1099 (1991). Briefly, for biotinylation, Fn is first dialyzed into 0.1M NaHCO3 containing 0.1M NaCl at pH 8.0 and centrifuged at 100,000× g for 30 minutes at 4° C. to remove any particulate matter. The protein concentration is adjusted to 0.5 mg/ml in 50 mM sodium borate at pH 8.5. […]
The Fn-peptide admixtures are maintained in GPIIb-IIIa-coated wells for 2 hours at room temperature to allow the biotinylated Fn to bind to the receptor. Following this maintenance period, the reacted wells are washed as described above and the amount of biotinylated Fn bound to GPIIb-IIIa is determined by admixing 0.1 ml avidin bound to biotinylated horseradish peroxidase H (Hrp) (Sigma, St. Louis, Mo.) at a 1:2000 dilution to form an avidin-biotinylated Fn admixture. […] Excess avidin Hrp is removed by washing as described and the presence of biotinylated Fn bound to purified GPIIb-IIIa is detected by admixture of 50 μl of freshly prepared chromogenic substrate solution containing 4.0 mg/ml 0-phenylenediamine and 0.012% (v/v) hydrogen peroxide in CP buffer as described in Example 3a. After maintaining the color developing-reaction admixture for 10 minutes at 20° C., the reaction is stopped with the admixture of 2N H2 SO4 and the stopped reactions are measured for absorbance as described in Example 3a.

[2] = biological target: T1, GPIIb-IIIa; assay: Direct binding of 125I-labelled ligands to microtiter wells coated with purified GPIIb-IIIa
Source text: To determine if the insert coded polypeptide containing fibronectin residues 1235-1436 bound GPIIb-IIIa, the capacity of microtiter wells coated with purified GPIIb-IIIa to bind the radiolabelled fusion-protein preparation was ascertained (Table 3). In addition, the radiolabelled material bound to the insolubilized GPIIb-IIIa was recovered and analyzed by SDS-PAGE followed by radioautography. […] The isolated protein products were a mixture of insert coded polypeptides containing fusion protein and maltose binding protein breakdown products. Only those bands containing the insert-coded polypeptide bound to the insolubilized GPIIb-IIIa and that binding was inhibitable by either EDTA or the monoclonal antibody FnI-16.

[3] = biological target: T1, GPIIb-IIIa; assay: Inhibition of 125I-Fn binding to immobilized GPIIb-IIIa by fusion proteins (competition binding); conditions: varying concentrations, FIG. 3
Procedure: The ability of a fusion protein or polypeptide of the present invention to inhibit the binding interaction between GPIIb-IIIa and either fibronectin or fibrinogen was measured by competition binding to immobilized GPIIb-IIIa.
Incubate the GPIIb-IIIa in the plate for 16 hours at 4° C., then the unbound material is removed from the wells which are then blocked with 150 μl of 5% BSA in the same buffer for 1 hour at room temperature. Wash the wells three times with 150 μl of Tyrode's buffer with 5 mM HEPES, 1 mM MgCl2, 1 mg/ml dextrose, 1 mg/ml BSA. […] Incubate 4 hours to overnight at room temperature (with lead shield).
Carefully remove radioactive samples and wash 3 times with 150 μl Tyrodes with 5 mM HEPES, 1 mMMgCl2, 1 mg/ml dextrose, 1 mg/ml BSA. Count with a Gamma Counter and elute by boiling in SDS-PAGE loading Buffer.
In an alternative embodiment, non-radioactive Fn may be used instead of radioactive, and detected by reacting with an appropriate anti-Fn antibody and HRP-conjugated secondary antibody. Using this variation, each antibody is incubated with the washed plate for 1 hr. The anti-Fn antibody is titrated, but a 1:1000 dilution of HRP-conjugated antibody from most manufacturers works fine.

(2:248-274): synthetic polypeptide of SEQ ID NO 2 residues 248-274, Fn residues 1410-1436 (IGQQSTVSDVPRDLEVVAATPTSLLIS)
polypeptide concentration for maximal inhibition of Fn binding to GPIIb-IIIa ([1]; 10 nM biotinylated Fn): approximately 200 μM | competitive inhibition of Fn binding to purified GPIIb-IIIa ([1]; 10 nM biotinylated Fn, 0.1 to 200 μM polypeptide): competitively inhibits

Fibronectin
binding of radiolabelled ligand to insolubilized GPIIb-IIIa ([2]; GPIIb-IIIa coated wells): Specific binding | 125I-labelled ligand bound to GPIIb-IIIa ([2]; inhibitor 2 mM EDTA): 8 Counts × 10^-3 | 125I-labelled ligand bound to GPIIb-IIIa ([2]; inhibitor Mab 16.12): 12 Counts × 10^-3 | 125I-labelled ligand bound to GPIIb-IIIa ([2]; no inhibitor): 42 Counts × 10^-3 | inhibition of fibronectin binding to purified GPIIb-IIIa [3]: inhibited fibronectin binding

(2:197-274): polypeptide of SEQ ID NO 2 residues 197-274, Fn residues 1359-1436
inhibition of Fn binding to GPIIb-IIIa [1]: inhibit Fn binding to GPIIb-IIIa

(2:73-274): polypeptide of SEQ ID NO 2 residues 73-274, Fn residues 1235-1436
inhibition of Fn binding to GPIIb-IIIa [1]: inhibit Fn binding to GPIIb-IIIa
